From US11774442B2, “Molecule sensor systems” (priority 2016, dated 2023) come the findings set out here.

The subject of series [1] is PcaV. The series is described as follows: PcaV synthetic promoter/operator GFP reporter in E. coli. Type of series: cell-based, Streptomyces coelicolor. As to conditions: E. coli harboring PcaV plasmid, grown in supplemented medium. From the text: As an example, Streptomyces coelicolor harbors an aTF, PcaV (SC06704), a member of the MarR family, which relieves repression on its operator in the presence of 3,4-dihydroxybenzoic acid. When the intergenic region between PcaV and Pcal was cloned into position to promote the expression of GFP on a plasmid which can be maintained in E. coli, no GFP expression was observed even though no known protein was present which could bind the operator site. […] Upon the introduction of the PcaV protein under a constitutive promoter, the GFP expression was suppressed. […] See FIG. 1, FIG. 2, FIG. 3, FIG. 21.

Series [2] relates to FapR. Put plainly: FapR GFP reporter in E coli. Type of series: cell-based, Staphylococcus aureus. The settings on record: increasing concentrations. From the text:
(§1) Staphylococcus aureus FapR responds to intracellular levels of malonyl-CoA. Cerulenin is an inhibitor of fatty acid biosynthesis and is known to increase the intracellular pool of malonyl-CoA at subtoxic concentrations.

Series [3] has as its system E coli. Put plainly: Toxicity in FapR chassis dose response (OD600 and fluorescence channels). Type of series: cell-based. The settings on record: highest concentration.
Text: as §1

The target of series [4] is T1, TtgR (Pseudomonas putida, UniProt Q88N29).
T1 construct: Wild type of TtgR; expressed in transfected cells; host or cells: E. coli
T1 sequence (Q88N29 whole entry): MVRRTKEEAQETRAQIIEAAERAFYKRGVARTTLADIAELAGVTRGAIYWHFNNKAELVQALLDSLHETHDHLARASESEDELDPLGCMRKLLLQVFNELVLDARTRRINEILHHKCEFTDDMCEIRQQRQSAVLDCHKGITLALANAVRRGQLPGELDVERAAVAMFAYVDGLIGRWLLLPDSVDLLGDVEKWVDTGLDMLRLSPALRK
The series is described as follows: TtgR-GFP sensor-reporter system in E. coli, response to naringenin. Type of series: cell-based. As to conditions: TtgR-binding synthetic operator promoter. From the text:
TtgR regulates the TtgABC efflux pump in Pseudomonas putida, and responds to antibiotics such as chloramphenicol (Teran, et al) as well as the flavanones such as naringenin (Raman, et al).
See FIG. 8, FIG. 9, FIG. 10, FIG. 11, FIG. 13.

Series [5] concerns FadR. Type of series: cell-based, Vibrio cholerae. As to conditions: E coli; increased levels.

Structures are written as SMILES.

`O=C(O)c1ccc(O)c(O)c1` [3,4-dihydroxybenzoic acid]: the GFP expression result in series [1] is on record as “expression of GFP was observed”.
As for `C/C=C/C/C=C/CCC(=O)[C@H]1O[C@H]1C(N)=O` [cerulenin], the GFP reporter expression entry in series [2] was “increased expression of a GFP reporter”. In addition, the toxicity entry in series [3] is on record as “toxicity at highest concentration”.
Consider `O=C1C[C@@H](c2ccc(O)cc2)Oc2cc(O)cc(O)c21` [naringenin], for which the GFP expression entry in series [4] is “drive GFP expression”.
In the case of `CCCCCCCC/C=C\CCCCCCCC(=O)O` [oleic acid], in series [5], the GFP reporter expression entry is listed as “driving expression of a GFP reporter”.
